Results published in ChEMBL document CHEMBL1146011, “Diaryl substituted pyrrolidinones and pyrrolones as 5-HT2C inhibitors: synthesis and biological evaluation” (Bioorg Med Chem Lett, 2006).

Tests used:
[1] = target: T1, 5-hydroxytryptamine receptor 2C (Homo sapiens, UniProt P28335); assay: Binding affinity to human 5HT2C receptor
T1 sequence (P28335 whole entry): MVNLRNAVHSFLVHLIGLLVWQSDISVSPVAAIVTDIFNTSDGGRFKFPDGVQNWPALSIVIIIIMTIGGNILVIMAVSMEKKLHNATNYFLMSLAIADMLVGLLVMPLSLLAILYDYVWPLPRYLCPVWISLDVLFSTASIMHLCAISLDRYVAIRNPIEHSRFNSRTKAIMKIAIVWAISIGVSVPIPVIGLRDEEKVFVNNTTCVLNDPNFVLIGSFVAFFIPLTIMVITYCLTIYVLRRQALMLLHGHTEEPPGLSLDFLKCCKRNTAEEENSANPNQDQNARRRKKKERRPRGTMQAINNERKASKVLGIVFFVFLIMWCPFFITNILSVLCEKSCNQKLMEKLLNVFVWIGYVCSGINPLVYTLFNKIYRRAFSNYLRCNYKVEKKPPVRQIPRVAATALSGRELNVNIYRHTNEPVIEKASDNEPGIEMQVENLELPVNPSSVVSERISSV

[2] = target: 5-hydroxytryptamine receptor 2A (Homo sapiens, UniProt P28223); assay: Binding affinity to human 5HT2A receptor
5-hydroxytryptamine receptor 2A, sequence (P28223 whole entry): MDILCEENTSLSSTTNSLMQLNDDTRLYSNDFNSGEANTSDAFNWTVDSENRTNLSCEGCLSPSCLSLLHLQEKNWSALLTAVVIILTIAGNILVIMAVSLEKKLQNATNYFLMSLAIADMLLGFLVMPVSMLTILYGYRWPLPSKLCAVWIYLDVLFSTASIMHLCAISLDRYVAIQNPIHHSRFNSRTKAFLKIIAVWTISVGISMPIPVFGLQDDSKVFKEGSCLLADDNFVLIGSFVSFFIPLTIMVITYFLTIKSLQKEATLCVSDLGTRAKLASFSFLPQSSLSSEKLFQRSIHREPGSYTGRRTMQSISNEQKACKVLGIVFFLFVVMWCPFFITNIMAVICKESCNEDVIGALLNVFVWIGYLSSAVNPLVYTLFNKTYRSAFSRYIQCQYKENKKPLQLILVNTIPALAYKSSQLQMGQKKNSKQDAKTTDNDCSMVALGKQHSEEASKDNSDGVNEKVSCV

[3] = target: 5-hydroxytryptamine receptor 2B (Homo sapiens, UniProt P41595); assay: Binding affinity to human 5HT2B receptor
5-hydroxytryptamine receptor 2B, sequence (P41595 whole entry): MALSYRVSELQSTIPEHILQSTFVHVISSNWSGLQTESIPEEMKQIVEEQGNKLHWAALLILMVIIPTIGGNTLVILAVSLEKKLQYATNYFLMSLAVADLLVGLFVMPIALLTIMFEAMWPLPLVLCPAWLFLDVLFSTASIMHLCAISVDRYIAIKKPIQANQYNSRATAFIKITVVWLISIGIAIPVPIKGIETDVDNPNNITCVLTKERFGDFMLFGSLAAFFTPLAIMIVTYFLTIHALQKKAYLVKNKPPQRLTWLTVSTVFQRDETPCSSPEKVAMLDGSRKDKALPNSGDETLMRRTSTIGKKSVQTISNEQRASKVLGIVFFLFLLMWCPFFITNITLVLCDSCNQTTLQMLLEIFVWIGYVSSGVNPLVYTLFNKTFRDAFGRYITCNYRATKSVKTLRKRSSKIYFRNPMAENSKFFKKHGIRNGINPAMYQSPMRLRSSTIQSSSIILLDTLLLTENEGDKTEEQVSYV

[4] = Plasma clearance in orally dosed rat; assay type: ADME, organism-based; conditions: po
[5] = Bioavailability in orally dosed rat; assay type: ADME, organism-based; conditions: in vivo, po
[6] = Ratio of drug level in brain against plasma in orally dosed rat; assay type: ADME, organism-based; conditions: po, read-out: BPR
Rattus norvegicus [7] = assay: Volume of distribution in orally dosed rat; assay type: ADME, organism-based; conditions: in vivo, po
[8] = Half life in orally dosed rat; assay type: ADME, organism-based; conditions: in vivo, po
Rattus norvegicus [9] = assay: Drug level in orally dosed rat brain; assay type: ADME, organism-based; conditions: in vivo, po

Compound	Ki [1] [nM]	Ki [2] [nM]	Ki [3] [nM]	other results
COc1ccc(C2=C(C)CN(c3ccc(Cl)cc3)C2=O)cc1OCCN1CCCCC1	200	398	501	–
COc1ccc(N2CCC(c3ccc(F)cc3)C2=O)cc1OCCN1CCCCC1 (stereo not drawn)	100	> 2510	> 5010	–
COc1ccc(N2CC=C(c3ccc(Cl)cc3)C2=O)cc1OCCN1CCC(C)CC1	6.31	631	> 1580	–
O=C1C(c2ccc(Cl)c(Cl)c2)=CCN1c1ccc(Cl)c(OCCN2CCCCC2)c1	63.1	> 1260	> 1580	–
COc1ccc(N2CC=C(c3ccc(Cl)c(Cl)c3)C2=O)cc1OCCN1CCOCC1	6.31	3980	> 1580	–
COc1ccc(N2CCC(c3ccc(Cl)c(Cl)c3)C2=O)cc1OCCN1CCC(C)CC1 (stereo not drawn)	12.6	398	2000	–
COc1ccc(C2CCN(c3ccc(Cl)c(Cl)c3)C2=O)cc1OCCN1CCCCC1 (stereo not drawn)	10	794	398	–
COc1ccc(N2CCC(C)(c3ccc(Cl)c(Cl)c3)C2=O)cc1OCCN1CCCCC1 (stereo not drawn)	5.01	631	1000	CL/F [4]: 65 mL/min/kg; bioavailability [5]: 13%; Kp [6]: 5
COc1ccc(N2CCC(c3cccc(Cl)c3)C2=O)cc1OCCN1CCCCC1 (stereo not drawn)	25.1	> 1000	> 1000	–
Cc1ccc(N2CCC(c3ccc(Cl)c(Cl)c3)C2=O)cc1OCCN1CCCCC1 (stereo not drawn)	398	> 1580	> 1580	–
COc1ccc(N2CC=C(c3ccc(Cl)c(Cl)c3)C2=O)cc1OCCN1CCC(C)CC1	3.16	794	> 794	CL/F [4]: 11 mL/min/kg; Vdss (Rattus norvegicus [7]): 4 L; half-life [8]: 4.5 h; bioavailability [5]: 52%; Kp [6]: 7.2; Drug uptake (Rattus norvegicus [9]): 1058 ng/g
COc1ccc(N2CCC(c3ccc(OC)c(OCCN4CCCCC4)c3)C2=O)cc1F (stereo not drawn)	15.8	> 1000	> 1580	–
COc1ccc(C2=CCN(c3cccc(F)c3)C2=O)cc1OCCN1CCCCC1	6.31	1000	501	–
COc1ccc(N2CCC(c3ccc(OC)c(OCCN4CCCCC4)c3)C2=O)cc1Cl (stereo not drawn)	20	> 2000	1580	–
COc1ccc(N2CC=C(c3ccc(Cl)cc3)C2=O)cc1OCCN1CCCCC1	7.94	1000	> 1580	–
COc1ccc(N2CC=C(c3ccc(OC)c(OCCN4CCCCC4)c3)C2=O)cc1	10	> 5010	> 2000	–
O=C1C(c2ccc(Cl)c(Cl)c2)CCN1c1ccc(OC(F)(F)F)c(OCCN2CCCCC2)c1 (stereo not drawn)	794	3160	1580	–
COc1ccc(N2CCC(c3ccc(Cl)c(Cl)c3)C2=O)cc1OCCN1CCC(C)(C)CC1 (stereo not drawn)	12.6	398	> 1000	–
COc1ccc(N2CC=C(c3ccc(C)cc3)C2=O)cc1OCCN1CCCCC1	0.316	> 1000	> 1000	–
COc1ccc(N2CC=C(c3cccc(F)c3)C2=O)cc1OCCN1CCCCC1	0.794	631	501	–
COc1ccc(N2CC=C(c3ccc(C(F)(F)F)cc3)C2=O)cc1OCCN1CCCCC1	12.6	> 1260	> 1000	–
COc1ccc(N2CC=C(c3ccc(F)cc3)C2=O)cc1OCCN1CCCCC1	6.31	398	1000	–
CC(=O)Nc1ccc(N2CCC(c3ccc(Cl)c(Cl)c3)C2=O)cc1OCCN1CCCCC1 (stereo not drawn)	316	> 3160	> 1580	–
COc1ccc(N2CC=C(c3cccc(C(F)(F)F)c3)C2=O)cc1OCCN1CCCCC1	5.01	794	> 794	–
COc1ccc(N2CC=C(c3ccc(C(F)(F)F)cc3)C2=O)cc1OCCN1CCC(C)CC1	12.6	1580	> 10000	–
COc1ccc(N2CC=C(c3ccc(Cl)c(Cl)c3)C2=O)cc1OCCN1CCCC1	3.98	631	> 1580	–

Compound	Ki [1] [nM]	Ki [2] [nM]	Ki [3] [nM]	other results
COc1ccc(N2CC=C(c3ccc(Br)cc3)C2=O)cc1OCCN1CCC(C)CC1	3.98	398	–	Log Ki [3]: > -6.2
COc1ccc(N2CC=C(c3ccc(Cl)c(Cl)c3)C2=O)cc1OCCN1CCC(F)(F)CC1	7.94	> 5010	> 5010	–
COc1ccc(N2CC=C(c3ccc(Cl)c(Cl)c3)C2=O)cc1OCCN1CCC(C(C)C)CC1	12.6	> 794	> 1000	–
Cc1ccc(N2CC=C(c3ccc(Cl)c(Cl)c3)C2=O)cc1OCCN1CCCCC1	126	> 1260	> 2000	–
COc1ccc(C2CCN(c3cccc(F)c3)C2=O)cc1OCCN1CCCCC1 (stereo not drawn)	20	> 1260	> 794	–
O=C1C(c2ccc(Cl)c(Cl)c2)CCN1c1ccc(Cl)c(OCCN2CCCCC2)c1 (stereo not drawn)	100	> 1000	> 1580	–
O=C1C(c2ccc(Cl)c(Cl)c2)=CCN1c1ccc(N2CCCC2)c(OCCN2CCCCC2)c1	200	> 1260	> 10000	–
COc1ccc(N2CC=C(c3ccc(Cl)c(Cl)c3)C2=O)cc1OCCN1CCC(C)(C)CC1	3.98	> 6310	316	–
COc1ccc(C2=CCN(c3ccc(Cl)c(Cl)c3)C2=O)cc1OCCN1CCCCC1	5.01	1260	126	–
O=C1C(c2ccc(Cl)c(Cl)c2)=CCN1c1ccc(OC(F)(F)F)c(OCCN2CCCCC2)c1	> 1260	> 10000	> 3160	–
COc1ccc(N2CCC(C)(c3ccc(Cl)c(Cl)c3)C2=O)cc1OCCN1CCC(C)CC1 (stereo not drawn)	5.01	–	> 794	CL/F [4]: 20 mL/min/kg; bioavailability [5]: 50%; Kp [6]: 1.8; Log Ki [2]: > -6.3
COc1ccc(N2CCC(c3ccc(OC)c(OCCN4CCCCC4)c3)C2=O)cc1 (stereo not drawn)	100	> 10000	> 10000	–
COc1ccc(N2CCC(c3ccc(Cl)c(Cl)c3)C2=O)cc1OCCN1CCC(C(C)C)CC1 (stereo not drawn)	25.1	398	> 1000	–
COc1ccc(N2CC=C(c3ccc(F)cc3)C2=O)cc1OCCN1CCC(C)CC1	3.16	251	1260	–
COc1ccc(N2CC=C(c3ccc(OC)c(OCCN4CCCCC4)c3)C2=O)cc1Cl	5.01	> 6310	–	Log Ki [3]: > -6.4
COc1ccc(N2CCC(c3ccc(Cl)c(Cl)c3)C2=O)cc1OCCN1CCCCC1 (stereo not drawn)	12.6	501	1580	–
COc1ccc(N2CC=C(c3ccc(Cl)c(F)c3)C2=O)cc1OCCN1CCC(C)CC1	7.94	> 1260	> 2000	–
COc1ccc(C2(C)CCN(c3ccc(Cl)c(Cl)c3)C2=O)cc1OCCN1CCCCC1 (stereo not drawn)	10	501	–	Log Ki [3]: > -6.3
COc1ccc(C2=C(C)CN(c3ccc(Cl)c(Cl)c3)C2=O)cc1OCCN1CCCCC1	126	501	200	–
COc1ccc(N2CC=C(c3ccc(OC)c(OCCN4CCCCC4)c3)C2=O)cc1F	6.31	> 3160	> 1580	–
COc1ccc(N2CC=C(c3cccc(Cl)c3)C2=O)cc1OCCN1CCC(C)CC1	5.01	794	501	–
COc1ccc(N2CCC(c3cccc(F)c3)C2=O)cc1OCCN1CCCCC1 (stereo not drawn)	100	> 7940	> 1580	–
COc1ccc(N2CC=C(c3ccc(Br)cc3)C2=O)cc1OCCN1CCCCC1	1.26	158	200	–
CC(=O)Nc1ccc(N2CC=C(c3ccc(Cl)c(Cl)c3)C2=O)cc1OCCN1CCCCC1	50.1	> 1580	> 1580	–
COc1ccc(N2CC=C(c3ccc(C)cc3)C2=O)cc1OCCN1CCC(C)CC1	1.58	631	1580	–
COc1ccc(N2CC=C(c3cccc(Cl)c3)C2=O)cc1OCCN1CCCCC1	2.51	631	631	–
